One series concerns the target T1, COX-1 (Ovis aries, UniProt P05979).
T1 sequence (P05979 25-600): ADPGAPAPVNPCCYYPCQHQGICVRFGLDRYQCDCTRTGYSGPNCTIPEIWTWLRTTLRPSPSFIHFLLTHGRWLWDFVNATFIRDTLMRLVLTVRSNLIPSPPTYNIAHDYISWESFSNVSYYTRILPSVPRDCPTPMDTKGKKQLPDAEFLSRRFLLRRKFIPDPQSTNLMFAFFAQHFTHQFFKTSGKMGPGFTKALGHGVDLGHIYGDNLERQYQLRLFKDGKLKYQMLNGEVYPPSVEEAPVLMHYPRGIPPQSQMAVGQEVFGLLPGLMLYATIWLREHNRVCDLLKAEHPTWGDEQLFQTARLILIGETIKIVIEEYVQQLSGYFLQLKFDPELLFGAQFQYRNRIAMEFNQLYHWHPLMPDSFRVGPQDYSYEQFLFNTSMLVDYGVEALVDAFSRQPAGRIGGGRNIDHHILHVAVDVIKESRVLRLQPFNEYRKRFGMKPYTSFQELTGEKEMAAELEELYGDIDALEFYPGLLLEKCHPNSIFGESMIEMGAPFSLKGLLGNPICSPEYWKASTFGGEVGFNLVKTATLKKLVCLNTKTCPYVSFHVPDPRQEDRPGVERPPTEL
The series is described as follows: Inhibition of COX-1 by NSAID derivatives (species not stated). The series is classed as biochemical. Here is the method:
(§1) While the TLC assay described above provides considerable information, it is labor-intensive for screening large numbers of candidate NSAID derivatives. Accordingly, as an alternative, a simplified assay can be used. Incubation conditions can be essentially as described above, except all candidate derivatives are first screened at a concentration of 1 mM with a preincubation time of 30 minutes. The substrate need not be radiolabeled, and the reaction can be stopped by the addition of 2 μL of formic acid. Product formation can be quantitated by enzyme-linked immunosorbent assay (ELISA) using commercially available kits. […] Other in vitro assay methods for screening NSAID derivatives for activity (e.g., selectivity for the COX-2 enzyme) can also be used by the skilled artisan.

In series [1] the test system is rat carageenan footpad edema. The experiment in a line: Rat carageenan footpad edema model. The series is classed as in vivo. As for the experimental part:
The first is the rat carageenan footpad model. Maximal edema is obtained in this model 3 hours after carageenan injection.

For series [2] the following is noted: rat, in vivo.
The nature of series [3]: Metabolism by rat liver microsomes. It counts as in vitro ADME. The note with it: 0.125 mg/mL protein. Here is the method: Preliminary metabolic studies were conducted using isolated liver microsome preparations.
Background: Microsomes from liver hold many membrane-bound enzymes, among them those of drug oxidation.

In the next series the target is T2, COX-2 (Homo sapiens, UniProt P35354).
T2 sequence (P35354 18-604): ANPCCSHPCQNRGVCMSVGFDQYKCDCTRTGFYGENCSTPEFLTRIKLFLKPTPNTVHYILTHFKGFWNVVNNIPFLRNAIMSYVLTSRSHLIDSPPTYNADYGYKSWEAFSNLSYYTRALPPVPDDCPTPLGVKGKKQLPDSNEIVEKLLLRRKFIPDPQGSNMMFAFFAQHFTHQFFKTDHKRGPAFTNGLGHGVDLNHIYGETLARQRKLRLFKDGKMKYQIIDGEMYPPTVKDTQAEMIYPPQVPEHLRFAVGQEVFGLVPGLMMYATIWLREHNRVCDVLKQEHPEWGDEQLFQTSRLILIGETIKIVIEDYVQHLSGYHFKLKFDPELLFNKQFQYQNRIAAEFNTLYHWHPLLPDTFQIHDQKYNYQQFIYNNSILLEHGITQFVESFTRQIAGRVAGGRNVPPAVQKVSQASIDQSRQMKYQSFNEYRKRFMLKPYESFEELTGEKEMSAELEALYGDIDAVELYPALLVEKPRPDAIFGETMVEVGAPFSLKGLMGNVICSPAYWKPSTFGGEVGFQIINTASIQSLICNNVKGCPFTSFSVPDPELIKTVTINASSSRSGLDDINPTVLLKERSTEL
The experiment in a line: Inhibition of purified COX-2 by NSAID derivatives (species not stated). It counts as biochemical. Conditions: purified enzyme. Here is the method: as §1

For series [4], the target named is T3, COX-2 activity in RAW 264.7 murine macrophage cell line (Mus musculus, UniProt Q05769).
T3 construct: The macrophages were exposed to lipopolysaccharide and γ-interferon to induce COX-2; endogenous in cells
T3 sequence (Q05769 18-604): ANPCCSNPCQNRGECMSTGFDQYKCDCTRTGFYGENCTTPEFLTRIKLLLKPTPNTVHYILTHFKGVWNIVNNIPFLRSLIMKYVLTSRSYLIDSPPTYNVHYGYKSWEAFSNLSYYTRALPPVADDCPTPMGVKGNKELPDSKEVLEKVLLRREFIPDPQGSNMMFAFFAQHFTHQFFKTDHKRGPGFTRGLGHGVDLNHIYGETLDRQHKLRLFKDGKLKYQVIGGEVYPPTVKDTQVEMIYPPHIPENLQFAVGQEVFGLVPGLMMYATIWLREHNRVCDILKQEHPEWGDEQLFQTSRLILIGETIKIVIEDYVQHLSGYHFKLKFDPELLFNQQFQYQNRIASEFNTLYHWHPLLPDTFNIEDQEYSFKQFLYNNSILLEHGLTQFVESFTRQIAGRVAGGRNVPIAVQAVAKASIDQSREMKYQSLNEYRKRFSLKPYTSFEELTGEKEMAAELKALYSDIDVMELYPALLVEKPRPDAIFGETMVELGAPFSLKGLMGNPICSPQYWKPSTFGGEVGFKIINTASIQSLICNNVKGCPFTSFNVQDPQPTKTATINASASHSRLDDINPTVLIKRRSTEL
The series is described as follows: Inhibition of COX-2 activity (PGD2 synthesis) in activated RAW264.7 macrophages. It counts as cell-based. Conditions: read-out: IC50 for inhibition of COX-2 activity in RAW 264.7 macrophages. An excerpt: Thus, NSAID derivatives that are identified as potentially useful in the methods described herein can be further tested using, for example, the RAW264.7 murine macrophage cell line. These cells are readily available (for example, from the American Type Culture Collection, Manassas, Va., United States of America) and are easily cultured in large numbers. They normally express low levels of COX-1 and very low to undetectable levels of COX-2. Upon exposure to bacterial lipopolysaccharide (LPS), however, COX-2 levels increase dramatically over the ensuing 24 hour period, and the cells produce PGD2 and PGE2 from endogenous arachidonic acid stores (generally, ˜1 nmol/10^7 cells total PG formation). After LPS exposure, the addition of exogenous arachidonic acid results in the formation of additional PGD2 and PGE2 as a result of metabolism by the newly synthesized COX-2.
This system provides a number of approaches for testing the inhibitory potency of COX-2-selective ligands (e.g., inhibitors). In general, following LPS activation, cells can be treated for 30 minutes with the desired concentrations of candidate derivative(s) in DMSO. ^14C-arachidonic acid can be added, and the cells can be incubated for 15 minutes at 37° C. Product formation can be assessed following extraction and TLC separation of the culture medium. Alternatively, the effects of candidate derivatives on PG synthesis from endogenous arachidonic acid can be assessed by incubating cells with desired concentrations of candidate derivatives 30 minutes prior to LPS exposure. Following a 24 hour incubation, medium can be collected and extracted, and the amount of PGD2 and/or PGE2 can be assayed by gas chromatography-mass spectrometry, liquid chromatography-mass spectrometry, or ELISA.
Inhibition of COX-2 Activity in Activated RAW264.7. Protocols for COX-2 inhibition in RAW264.7 cells have been previously described (Kalgutkar et al., 1998b). Briefly, cells (6.2×10^6 cells/T25 flask) were activated with lipopolysaccharide (1 μg/mL) and γ-interferon (10 U/mL) in serum-free DMEM for 7 hours and then treated with inhibitor (0-2 μM) for 30 minutes at 37° C. Exogenous arachidonate metabolism was determined by adding [1-^14C]-arachidonate acid (20 μM) for 15 minutes at 37° C. IC50 values are the average of two independent determinations.
The macrophages were exposed to lipopolysaccharide and γ-interferon to induce COX-2 and then treated with several concentrations of Compound 355.

The target of series [5] is T4, COX-1 activity in uninduced macrophages (Mus musculus, UniProt P22437).
T4 construct: endogenous in cells
T4 sequence (P22437 27-602): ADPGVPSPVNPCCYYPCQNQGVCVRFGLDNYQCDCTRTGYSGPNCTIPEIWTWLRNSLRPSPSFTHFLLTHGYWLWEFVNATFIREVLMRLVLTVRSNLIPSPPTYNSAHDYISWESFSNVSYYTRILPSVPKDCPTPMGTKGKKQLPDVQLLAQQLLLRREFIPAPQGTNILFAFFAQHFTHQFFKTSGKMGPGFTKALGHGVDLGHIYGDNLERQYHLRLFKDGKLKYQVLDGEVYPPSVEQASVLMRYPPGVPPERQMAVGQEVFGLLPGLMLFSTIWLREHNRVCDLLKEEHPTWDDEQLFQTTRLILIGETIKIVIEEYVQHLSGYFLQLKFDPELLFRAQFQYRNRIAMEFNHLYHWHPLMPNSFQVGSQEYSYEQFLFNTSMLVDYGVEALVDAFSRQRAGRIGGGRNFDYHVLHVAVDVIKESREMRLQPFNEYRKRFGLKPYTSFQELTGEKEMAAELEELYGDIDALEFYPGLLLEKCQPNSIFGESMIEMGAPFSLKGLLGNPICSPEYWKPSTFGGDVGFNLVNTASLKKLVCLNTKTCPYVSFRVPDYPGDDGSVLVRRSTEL
The series is described as follows: Inhibition of COX-1 activity in uninduced macrophages. The series is classed as cell-based, murine.

SMILES strings stand for the structures.

The text below walks through data of patent US20050002859A1, “COX-2-targeted imaging agents” (Vanderbilt University, priority 2003, published 2005).

Usually IC50 stands for the midpoint of a concentration-inhibition curve. By ED50 is commonly meant the dose that gives a 50% effect, or the effect in half of the subjects. A low value points to an effect at a small dose.

On COX-1, `COc1ccc2c(c1)c(CC(=O)Nc1ccc(F)cc1)c(C)n2C(=O)c1ccc(Cl)cc1` [Compound 18, p-fluorophenyl derivative of indomethacin amide] yielded an IC50 greater than 66 µM. In addition, the “anti-inflammatory activity in rat footpad edema assay” value in series [1] (following oral installation) is on record as “anti-inflammatory activity”. Also, the ED50 in series [1] (rat carageenan footpad model (Example 14)) is reported as 0.25 mg/kg. The clearance half-life in series [2] worked out at 4 h. In series [2] (po), the half-life in plasma was 4 h and the oral bioavailability is 30%. The “half-life, rat liver microsomes” value in series [3] worked out at 1.67 h.
As for `CCCCC#CCSc1ccccc1OC(=O)CF` [F-APHS], the IC50 at COX-2 was determined as 4 µM; in series [4] it was 2.8 µM. Also, the “concentration up to which COX-1 activity is not inhibited” value in series [5] was greater than 32 µM.
